This note sets out measurements from patent US8530388B2, “Cyclopentadione derived herbicides” (Syngenta Limited, priority 2009, dated 2013).

Common to all, as to assay type: in vivo
Test [1] relates to Alopecurus myosuroides (ALOMY). The experiment in a line: Pre-emergence herbicidal activity, glasshouse pot test. As to conditions: 312 h, Rate 250 g/ha, sprayed one day after sowing, evaluated after 13 days, 100=total damage to plant, 0=no damage to plant. The method, then:
(§1) Seeds of a variety of test species were sown in standard soil in pots. After cultivation for one day (pre-emergence) or after 8 days cultivation (post-emergence) under controlled conditions in a glasshouse (at 24/16° C., day/night; 14 hours light; 65% humidity), the plants were sprayed with an aqueous spray solution derived from the formulation of the technical active ingredient in acetone/water (50:50) solution containing 0.5% Tween 20 (polyoxyethelyene sorbitan monolaurate, CAS RN 9005-64-5). The test plants were then grown in a glasshouse under controlled conditions in a glasshouse (at 24/16° C., day/night; 14 hours light; 65% humidity) and watered twice daily. After 13 days for pre and post-emergence, the test was evaluated (100=total damage to plant; 0=no damage to plant). Test plants: Setaria faberi (SETFA), Lolium perenne (LOLPE), Alopecurus myosuroides (ALOMY), Echinochloa crus-galli (ECHCG), and Avena fatua (AVEFA) Pre-Emergence Activity

The test system of test [2] is Avena fatua (AVEFA). Described as above. The following applies: 312 h, Rate 250 g/ha, sprayed one day after sowing, evaluated after 13 days, 100=total damage to plant, 0=no damage to plant. The method, then: as §1
Test [3] relates to Echinochloa crus-galli (ECHCG). The test is described as above. The following applies: 312 h, Rate 250 g/ha, sprayed one day after sowing, evaluated after 13 days, 100=total damage to plant, 0=no damage to plant. The method, then:
as §1

The subject of test [4] is Lolium perenne (LOLPE). The test is described as above. The following applies: 312 h, Rate 250 g/ha, sprayed one day after sowing, evaluated after 13 days, 100=total damage to plant, 0=no damage to plant. The method, then:
as §1

Test [5] deals with Alopecurus myosuroides (ALOMY). Briefly: Post-emergence herbicidal activity, glasshouse pot test. As to conditions: 312 h, rate 250 g/ha, evaluated after 13 days, read-out: Post-emergence activity, ALOMY (100=total damage to plant; 0=no damage to plant). The method, then: as §1, with “plant).” for “plant). Test plants: Setaria faberi (SETFA), Lolium perenne (LOLPE), Alopecurus myosuroides (ALOMY), Echinochloa crus-galli (ECHCG), and Avena fatua (AVEFA) Pre-Emergence Activity”
(§2) Test plants: Setaria faberi (SETFA), Lolium perenne (LOLPE), Alopecurus myosuroides (ALOMY), Echinochloa crus-galli (ECHCG), and Avena fatua (AVEFA)

For test [6], the system named is Avena fatua (AVEFA). The test is described as above. The following applies: 312 h, rate 250 g/ha, evaluated after 13 days, read-out: Post-emergence activity, AVEFA (100=total damage to plant; 0=no damage to plant). The method, then:
as §1, with “plant).” for “plant). Test plants: Setaria faberi (SETFA), Lolium perenne (LOLPE), Alopecurus myosuroides (ALOMY), Echinochloa crus-galli (ECHCG), and Avena fatua (AVEFA) Pre-Emergence Activity”
as §2

Test [7] relates to Echinochloa crus-galli (ECHCG). The description is as above. As to conditions: 312 h, rate 250 g/ha, evaluated after 13 days, read-out: Post-emergence activity, ECHCG (100=total damage to plant; 0=no damage to plant). The method, then: as §1, with “plant).” for “plant). Test plants: Setaria faberi (SETFA), Lolium perenne (LOLPE), Alopecurus myosuroides (ALOMY), Echinochloa crus-galli (ECHCG), and Avena fatua (AVEFA) Pre-Emergence Activity”
as §2

The test system of test [8] is Lolium perenne (LOLPE). The description is as above. The following applies: 312 h, rate 250 g/ha, evaluated after 13 days, read-out: Post-emergence activity, LOLPE (100=total damage to plant; 0=no damage to plant). The method, then:
as §1, with “plant).” for “plant). Test plants: Setaria faberi (SETFA), Lolium perenne (LOLPE), Alopecurus myosuroides (ALOMY), Echinochloa crus-galli (ECHCG), and Avena fatua (AVEFA) Pre-Emergence Activity”
as §2

With `CCc1ccc(-c2ccc(C(F)(F)F)cc2)cc1C1=C(O)CCC1=O` [Compound T-18], the pest or weed control at 250 g/ha in test [1] worked out at 50%; in the test with Avena fatua (AVEFA) [2] it was 30%; in test [3] it was 50%; in the test with Lolium perenne (LOLPE) [4], 30%; in test [5], 80%; with Avena fatua (AVEFA) [6], 90%. The figures for the pest or weed control at 250 g/ha (in test [7]; with Lolium perenne (LOLPE) [8]) were 100% and 70%, respectively.

For the molecule `CCc1ccc(-c2ccc(F)cc2)cc1C1=C(O)CCC1=O` [Compound T-17], the pest or weed control at 250 g/ha stood at 40% in test [1]; 0% with Avena fatua (AVEFA) [2]; 80% in test [3]; 60% with Lolium perenne (LOLPE) [4]; 50% in test [5]; 40% with Avena fatua (AVEFA) [6]. The pest or weed control at 250 g/ha in test [7] is 70%; with Lolium perenne (LOLPE) [8] it was 50%.

As to `CCc1ccc(-c2cc(F)c(Cl)c(F)c2)cc1C1=C(O)CCC1=O` [Compound T-21], the pest or weed control at 250 g/ha was 40% in test [1]; 10% in the test with Avena fatua (AVEFA) [2]; 40% in test [3]; 100% in the test on Lolium perenne (LOLPE) [4]; 30% in test [5]; 20% with Avena fatua (AVEFA) [6]. For the same molecule, the pest or weed control at 250 g/ha was determined as 40% in test [7] and 30% in the test with Lolium perenne (LOLPE) [8].

`CCc1ccc(-c2ccc(Cl)cc2)cc1C1=C(O)C2CSCC2C1=O` (stereo not drawn) [Compound T-2, 5-(4′-Chloro-4-ethylbiphenyl-3-yl)-tetrahydrocyclopenta[c]thiophene-4,6-dione]: the pest or weed control at 250 g/ha in test [1] was 0%; in the test with Avena fatua (AVEFA) [2], 0%; in test [3] it was 70%; in the test on Lolium perenne (LOLPE) [4] it was 0%; in test [5] it was 20%; with Avena fatua (AVEFA) [6], 80%. For the same molecule, the pest or weed control at 250 g/ha in test [7] is 100%; in the test with Lolium perenne (LOLPE) [8], 0%.

For the molecule `CCc1ccc(-c2ccc(Cl)c(Cl)c2F)cc1C1=C(O)CCC1=O` [Compound T-13], the pest or weed control at 250 g/ha in test [1] came to 0%; in the test on Avena fatua (AVEFA) [2], 0%; in test [3], 0%; in the test on Lolium perenne (LOLPE) [4], 0%; in test [5], 10%; with Avena fatua (AVEFA) [6] it was 0%. Moreover, the pest or weed control at 250 g/ha turned out to be 60% in test [7] and 40% with Lolium perenne (LOLPE) [8].

With `CCc1ccc(-c2ccc(Cl)cc2F)cc1C1=C(O)CCC1=O` [Compound T-3, 2-(4′-chloro-4-ethyl-2′-fluorobiphenyl-3-yl)cyclopentane-1,3-dione], the pest or weed control at 250 g/ha in test [1] was 30%; in the test with Avena fatua (AVEFA) [2], 60%; in test [3] it was 100%; in the test with Lolium perenne (LOLPE) [4], 90%; in test [5] it was 30%; in the test on Avena fatua (AVEFA) [6] it was 90%. Besides, the pest or weed control at 250 g/ha was found to be 100% in test [7] and 40% with Lolium perenne (LOLPE) [8].

For `CCc1ccc(-c2ccc(Cl)c(C(F)(F)F)c2)cc1C1=C(O)CCC1=O` [Compound T-8], the pest or weed control at 250 g/ha in test [1] turned out to be 30%; with Avena fatua (AVEFA) [2], 0%; in test [3] it was 60%; in the test on Lolium perenne (LOLPE) [4], 60%; in test [5], 50%; in the test on Avena fatua (AVEFA) [6], 30%. In addition, the pest or weed control at 250 g/ha was 100% in test [7] and 60% in the test on Lolium perenne (LOLPE) [8].

In the case of `CCc1ccc(-c2ccc(Cl)cc2C)cc1C1=C(O)CCC1=O` [Compound T-4], the pest or weed control at 250 g/ha worked out at 50% in test [1]; 10% with Avena fatua (AVEFA) [2]; 50% in test [3]; 60% with Lolium perenne (LOLPE) [4]; 50% in test [5]; 0% in the test with Avena fatua (AVEFA) [6]. The values for the pest or weed control at 250 g/ha (in test [7]; in the test with Lolium perenne (LOLPE) [8]) were 70% and 30%, respectively.

With `CCc1ccc(-c2ccc(Cl)c(OC)c2)cc1C1=C(O)CCC1=O` [Compound T-6], the pest or weed control at 250 g/ha is 0% in test [1]; 0% with Avena fatua (AVEFA) [2]; 60% in test [3]; 30% with Lolium perenne (LOLPE) [4]; 50% in test [5]; 10% with Avena fatua (AVEFA) [6]. Further, the pest or weed control at 250 g/ha amounted to 90% in test [7] and 60% in the test on Lolium perenne (LOLPE) [8].

Consider `CCc1ccc(-c2cc(Cl)c(F)cc2F)cc1C1=C(O)CCC1=O` [Compound T-22], for which the pest or weed control at 250 g/ha in test [1] is 0%; in the test on Avena fatua (AVEFA) [2] it was 0%; in test [3] it was 30%; with Lolium perenne (LOLPE) [4], 10%; in test [5], 30%; in the test with Avena fatua (AVEFA) [6], 10%. The pest or weed control at 250 g/ha is 60% in test [7] and 10% in the test on Lolium perenne (LOLPE) [8].

Take `CCc1ccc(-c2c(F)cc(Cl)cc2F)cc1C1=C(O)CCC1=O` [Compound T-10]: the pest or weed control at 250 g/ha in test [1] was determined as 0%; in the test with Avena fatua (AVEFA) [2] it was 0%; in test [3], 0%; with Lolium perenne (LOLPE) [4], 0%; in test [5] it was 30%; with Avena fatua (AVEFA) [6], 50%. Also, the results for the pest or weed control at 250 g/ha (in test [7]; with Lolium perenne (LOLPE) [8]) were 90% and 40%, respectively.

On to `CCc1ccc(-c2ccc(Cl)c(Cl)c2Cl)cc1C1=C(O)CCC1=O` [Compound T-20], for which the pest or weed control at 250 g/ha is 0% in test [1]; 0% in the test with Avena fatua (AVEFA) [2]; 30% in test [3]; 10% in the test on Lolium perenne (LOLPE) [4]; 20% in test [5]; 10% with Avena fatua (AVEFA) [6]. In addition, the pest or weed control at 250 g/ha in test [7] was 70%; in the test on Lolium perenne (LOLPE) [8], 20%.

In the case of `CCc1ccc(-c2ccc(Cl)c(C(F)(F)F)c2F)cc1C1=C(O)CCC1=O` [Compound T-19], the pest or weed control at 250 g/ha in test [1] came out at 0%; in the test on Avena fatua (AVEFA) [2], 0%; in test [3], 10%; in the test on Lolium perenne (LOLPE) [4] it was 20%; in test [5], 60%; in the test with Avena fatua (AVEFA) [6], 20%. Further, the results for the pest or weed control at 250 g/ha (in test [7]; in the test on Lolium perenne (LOLPE) [8]) were 70% and 60%, respectively.

For the molecule `CCc1ccc(-c2cc(Cl)c(Cl)cc2Cl)cc1C1=C(O)CCC1=O` [Compound T-16], the pest or weed control at 250 g/ha in test [1] stood at 0%; in the test with Avena fatua (AVEFA) [2], 0%; in test [3], 50%; in the test with Lolium perenne (LOLPE) [4], 20%; in test [5], 50%; in the test on Avena fatua (AVEFA) [6], 80%. The pest or weed control at 250 g/ha in test [7] came out at 80%; with Lolium perenne (LOLPE) [8], 60%.

As for `O=C1CCC(O)=C1c1cc(-c2ccc(Cl)cc2Cl)ccc1C1CC1` [Compound T-24, 2-(2′,4′-dichloro-4-cyclopropylbiphenyl-3-yl)-cyclopentane-1,3-dione], the pest or weed control at 250 g/ha turned out to be 0% in test [1]; 0% in the test with Avena fatua (AVEFA) [2]; 80% in test [3]; 50% in the test with Lolium perenne (LOLPE) [4]; 30% in test [5]; 10% in the test on Avena fatua (AVEFA) [6]. For the same molecule, the pest or weed control at 250 g/ha in test [7] came out at 100%; with Lolium perenne (LOLPE) [8], 50%.

As to `CCc1ccc(-c2ccc(Cl)cc2)cc1C1=C(O)CCC1=O` [Compound T-1, 2-(4′-chloro-4-ethylbiphen-3-yl)-1,3-cyclopentanedione], the pest or weed control at 250 g/ha in test [1] was 90%; in the test with Avena fatua (AVEFA) [2] it was 70%; in test [3] it was 100%; in test [5], 80%; in the test on Avena fatua (AVEFA) [6], 90%; in test [7] it was 100%.
